# Key:
# Format in all cases: functional
# Klebsiella pneumoniae [1] = assay: Antibacterial activity against Klebsiella pneumoniae YC by Etest method in presence of beta-lactamase inhibitor clavulanic acid
# Pseudomonas aeruginosa [2] = assay: Antibacterial activity against Pseudomonas aeruginosa KG2505 harboring pCOL plasmid by Etest method in presence of beta-lactamase inhibitor clavulanic acid
# Escherichia coli [3] = assay: Antibacterial activity against Escherichia coli harboring pBC2303 expressing blaKPC gene plasmid by Etest method
# Pseudomonas aeruginosa [4] = assay: Antibacterial activity against Pseudomonas aeruginosa 2404 plasmid by Etest method in presence of beta-lactamase inhibitor clavulanic acid
# Escherichia coli [5] = assay: Antibacterial activity against Escherichia coli harboring pBC633 plasmid expressing blaKPC gene by Etest method in presence of beta-lactamase inhibitor clavulanic acid
# Pseudomonas aeruginosa [6] = assay: Antibacterial activity against Pseudomonas aeruginosa KG2505 by Etest method in presence of beta-lactamase inhibitor clavulanic acid
# Escherichia coli [7] = assay: Antibacterial activity against Escherichia coli harboring pNYC plasmid expressing blaKPC gene by Etest method
# Escherichia coli [8] = assay: Antibacterial activity against Escherichia coli harboring pCOL plasmid expressing blaKPC gene by Etest method in presence of beta-lactamase inhibitor clavulanic acid
# Klebsiella pneumoniae [9] = assay: Antibacterial activity against Klebsiella pneumoniae KN2303 by Etest method
# Escherichia coli [10] = assay: Antibacterial activity against Escherichia coli harboring pBC2303 expressing blaKPC gene plasmid by Etest method in presence of beta-lactamase inhibitor clavulanic acid
# Escherichia coli [11] = assay: Antibacterial activity against Escherichia coli DH10B expressing blaKPC gene by Etest method
# Pseudomonas aeruginosa [12] = assay: Antibacterial activity against Pseudomonas aeruginosa KG2505 by Etest method
# Escherichia coli [13] = assay: Antibacterial activity against Escherichia coli harboring pNGR plasmid expressing blaKPC gene by Etest method in presence of beta-lactamase inhibitor clavulanic acid
# Escherichia coli [14] = assay: Antibacterial activity against Escherichia coli harboring pNYC plasmid expressing blaKPC gene by Etest method in presence of beta-lactamase inhibitor clavulanic acid
# Escherichia coli [15] = assay: Antibacterial activity against Escherichia coli harboring pBC633 plasmid expressing blaKPC gene by Etest method
# Klebsiella pneumoniae [16] = assay: Antibacterial activity against Klebsiella pneumoniae 633 by Etest method in presence of beta-lactamase inhibitor clavulanic acid
# Escherichia coli [17] = assay: Antibacterial activity against Escherichia coli harboring pRYC plasmid expressing blaKPC gene by Etest method in presence of beta-lactamase inhibitor clavulanic acid
# Escherichia coli [18] = assay: Antibacterial activity against Escherichia coli DH10B expressing blaKPC gene by Etest method in presence of beta-lactamase inhibitor clavulanic acid
# Escherichia coli [19] = assay: Antibacterial activity against Escherichia coli harboring pNGR plasmid expressing blaKPC gene by Etest method
# Klebsiella pneumoniae [20] = assay: Antibacterial activity against Klebsiella pneumoniae GR by Etest method
# Pseudomonas aeruginosa [21] = assay: Antibacterial activity against Pseudomonas aeruginosa KG2505 harboring pCOL plasmid by Etest method
# Escherichia coli [22] = assay: Antibacterial activity against Escherichia coli harboring pRYC plasmid expressing blaKPC gene by Etest method
# Escherichia coli [23] = assay: Antibacterial activity against Escherichia coli harboring pCOL plasmid expressing blaKPC gene by Etest method
# Klebsiella pneumoniae [24] = assay: Antibacterial activity against Klebsiella pneumoniae 633 by Etest method
# Klebsiella pneumoniae [25] = assay: Antibacterial activity against Klebsiella pneumoniae KN2303 by Etest method in presence of beta-lactamase inhibitor clavulanic acid
# Klebsiella pneumoniae [26] = assay: Antibacterial activity against Klebsiella pneumoniae YC by Etest method
# Klebsiella pneumoniae [27] = assay: Antibacterial activity against Klebsiella pneumoniae GR by Etest method in presence of beta-lactamase inhibitor clavulanic acid
# Pseudomonas aeruginosa [28] = assay: Antibacterial activity against Pseudomonas aeruginosa 2404 plasmid by Etest method
Structure (SMILES),MIC (Klebsiella pneumoniae [1]) [µg/mL],MIC (Pseudomonas aeruginosa [2]) [µg/mL],MIC (Escherichia coli [3]) [µg/mL],MIC (Pseudomonas aeruginosa [4]) [µg/mL],MIC (Escherichia coli [5]) [µg/mL],MIC (Pseudomonas aeruginosa [6]) [µg/mL],MIC (Escherichia coli [7]) [µg/mL],MIC (Escherichia coli [8]) [µg/mL],MIC (Klebsiella pneumoniae [9]) [µg/mL],MIC (Escherichia coli [11]) [µg/mL],MIC (Pseudomonas aeruginosa [12]) [µg/mL],MIC (Escherichia coli [14]) [µg/mL],MIC (Escherichia coli [15]) [µg/mL],MIC (Klebsiella pneumoniae [16]) [µg/mL],MIC (Escherichia coli [17]) [µg/mL],MIC (Escherichia coli [18]) [µg/mL],MIC (Escherichia coli [19]) [µg/mL],MIC (Klebsiella pneumoniae [20]) [µg/mL],MIC (Pseudomonas aeruginosa [21]) [µg/mL],MIC (Escherichia coli [22]) [µg/mL],further results
C[C@@H](O)[C@H]1C(=O)N2C(C(=O)O)=C(S[C@@H]3CN[C@H](C(=O)Nc4cccc(C(=O)O)c4)C3)[C@H](C)[C@H]12,2,2,0.25,> 32,0.19,0.03,0.5,0.002,> 32,0.25,0.25,0.05,2,8,1.5,0.05,0.38,12,> 32,4,MIC (Escherichia coli [10]): 0.02 µg/mL; MIC (Escherichia coli [13]): 0.01 µg/mL; MIC (Escherichia coli [23]): 0.004 µg/mL; MIC (Klebsiella pneumoniae [24]): > 32 µg/mL; MIC (Klebsiella pneumoniae [25]): > 32 µg/mL; MIC (Klebsiella pneumoniae [26]): 24 µg/mL; MIC (Klebsiella pneumoniae [27]): 6 µg/mL; MIC (Pseudomonas aeruginosa [28]): > 32 µg/mL
CC1(C)S[C@@H]2[C@H](NC(=O)[C@H](N)c3ccc(O)cc3)C(=O)N2[C@H]1C(=O)O [AMOXICILLIN],32,> 256,> 256,> 256,32,0.25,> 256,2,> 256,> 256,0.25,32,> 256,32,64,24,> 256,> 256,> 256,> 256,MIC (Escherichia coli [10]): 24 µg/mL; MIC (Escherichia coli [13]): 24 µg/mL; MIC (Escherichia coli [23]): 2 µg/mL; MIC (Klebsiella pneumoniae [24]): > 256 µg/mL; MIC (Klebsiella pneumoniae [25]): > 256 µg/mL; MIC (Klebsiella pneumoniae [26]): > 256 µg/mL; MIC (Klebsiella pneumoniae [27]): 48 µg/mL; MIC (Pseudomonas aeruginosa [28]): > 256 µg/mL
CO/N=C(\C(=O)N[C@@H]1C(=O)N2C(C(=O)O)=C(COC(C)=O)CS[C@H]12)c1csc(N)n1 [CEFOTAXIME],16,> 32,16,> 32,3,0.19,4,0.01,> 32,3,0.25,2,32,> 32,> 32,0.25,4,> 32,> 32,> 32,MIC (Escherichia coli [10]): 0.38 µg/mL; MIC (Escherichia coli [13]): 0.38 µg/mL; MIC (Escherichia coli [23]): 0.05 µg/mL; MIC (Klebsiella pneumoniae [24]): > 32 µg/mL; MIC (Klebsiella pneumoniae [25]): > 32 µg/mL; MIC (Klebsiella pneumoniae [26]): > 32 µg/mL; MIC (Klebsiella pneumoniae [27]): 32 µg/mL; MIC (Pseudomonas aeruginosa [28]): > 32 µg/mL
C[C@@H](O)[C@H]1C(=O)N2C(C(=O)O)=C(SCCNC=N)C[C@H]12 [IMIPENEM ANHYDROUS],2,2,1,> 32,0.75,0.19,8,0.1,> 32,1.5,0.19,2,6,0.75,3,0.38,1.5,12,> 32,12,MIC (Escherichia coli [23]): 0.19 µg/mL; MIC (Klebsiella pneumoniae [24]): > 32 µg/mL; MIC (Klebsiella pneumoniae [25]): > 32 µg/mL; MIC (Klebsiella pneumoniae [26]): 4 µg/mL; MIC (Klebsiella pneumoniae [27]): 0.75 µg/mL; MIC (Pseudomonas aeruginosa [28]): > 32 µg/mL
C[C@@H](O)[C@H]1C(=O)N2C(C(=O)O)=C(S[C@@H]3CN[C@H](C(=O)N(C)C)C3)[C@H](C)[C@H]12 [MEROPENEM],1,3,0.38,> 32,0.38,0.01,2,0.002,> 32,0.38,0.05,0.25,2,2,2,0.1,0.38,6,> 32,3,MIC (Escherichia coli [10]): 0.12 µg/mL; MIC (Escherichia coli [13]): 0.01 µg/mL; MIC (Escherichia coli [23]): 0.01 µg/mL; MIC (Klebsiella pneumoniae [24]): 4 µg/mL; MIC (Klebsiella pneumoniae [25]): > 32 µg/mL; MIC (Klebsiella pneumoniae [26]): 2 µg/mL; MIC (Klebsiella pneumoniae [27]): 3 µg/mL; MIC (Pseudomonas aeruginosa [28]): > 32 µg/mL
CC1(C)S[C@@H]2[C@H](NC(=O)[C@H](C(=O)O)c3ccsc3)C(=O)N2[C@H]1C(=O)O [TICARCILLIN],> 256,> 256,> 256,> 256,> 256,0.25,> 256,1.5,> 256,> 256,0.38,> 256,> 256,> 256,> 256,> 256,> 256,> 256,> 256,> 256,MIC (Escherichia coli [10]): > 256 µg/mL; MIC (Escherichia coli [13]): > 256 µg/mL; MIC (Escherichia coli [23]): 2 µg/mL; MIC (Klebsiella pneumoniae [24]): > 256 µg/mL; MIC (Klebsiella pneumoniae [25]): > 256 µg/mL; MIC (Klebsiella pneumoniae [26]): > 256 µg/mL; MIC (Klebsiella pneumoniae [27]): > 256 µg/mL; MIC (Pseudomonas aeruginosa [28]): > 256 µg/mL

# Reference: ChEMBL document CHEMBL1255302, “Genetic structures at the origin of acquisition of the beta-lactamase bla KPC gene” (2008)
